Results on nine compounds are retold here after ChEMBL document CHEMBL1201862, “PubChem BioAssay data set” (2004).

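Where inhibition never reached the appropriate level, the endpoint shown equals the highest concentration tested. Otherwise, values were interpolated linearly from a five-concentration, 48-hour dose response in 96-well plates. GI50: concentration for 50% inhibition of growth.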 Calls of active or inactive are those of the source. Rule as the data show it: active = GI50 up to about 1.1 µM and inactive = higher.

Some test systems named below: CAKI-1; UO-31; SK-OV-3; XF498; HCT-116; SK-MEL-5; SN12C; OVCAR-8; OVCAR-4; HCC 2998; Malme-3M; U-251; HT-29; SR; TK-10; BT-549; PC-3; Hs-578T; T47D; NCI/ADR-RES.
What all share (experiment): DTP human tumour cell line panel, 48 h

For orientation: GI50 means the concentration that inhibits growth by half. Take `S=P(N1CCCC1)(N1CC1)N1CC1`: the GI50 was 49.4 µM (inactive) with CAKI-1; > 100 µM (inactive) in the assay with UO-31; > 100 µM (inactive) with SK-OV-3; > 100 µM (inactive) in the assay on XF498; > 100 µM (inactive) in the assay on HCT-116; > 100 µM (inactive) in the assay with SK-MEL-5. Besides, the GI50 in the assay on SN12C, in the assay on OVCAR-8, in the assay with OVCAR-4, in the assay with HCC 2998, with Malme-3M and in the assay on U-251 was > 100 µM (inactive) each time. For the same compound, the GI50 in the assay with HT-29 was > 100 µM (inactive); with SR, 83.8 µM (inactive); in the assay on TK-10, > 100 µM (inactive).
Regarding `CN(C)CC1CC/C(=C\c2ccc(O)cc2)C1=O` (configuration not stated), the GI50 in the assay with CAKI-1 was 1.63 µM (inactive); in the assay with UO-31 it was 12.9 µM (inactive); with SK-OV-3, 18.4 µM (inactive); in the assay on XF498, 5.82 µM (inactive); in the assay with HCT-116 it was 2 µM (inactive); in the assay with SK-MEL-5, 8.28 µM (inactive). Also, the GI50 in the assay with SN12C was 5.64 µM (inactive); in the assay on OVCAR-8, 4.6 µM (inactive); with BT-549, 2.06 µM (inactive); with OVCAR-4, 7.38 µM (inactive); with HCC 2998 it was 10.7 µM (inactive); in the assay on PC-3 it was 9.08 µM (inactive). In addition, the GI50 in the assay with Malme-3M was 2.94 µM (inactive); in the assay with U-251, 6.71 µM (inactive); in the assay with HT-29, 3.04 µM (inactive); in the assay on Hs-578T it was 7.11 µM (inactive); in the assay on T47D, 2.14 µM (inactive); with SR, 0.931 µM (active). Moreover, the GI50 with NCI/ADR-RES was 5.32 µM (inactive); with TK-10, 3.2 µM (inactive).
Turning to `CC1=CC2C(=O)N(c3ccccc3)C(=O)C2CC1n1[nH]c(=O)n(Cc2ccccc2)c1=O` (configuration not stated), the GI50 with CAKI-1, in the assay with UO-31, with SK-OV-3, in the assay with XF498, with HCT-116 and in the assay with SK-MEL-5 was > 100 µM (inactive) each time. In addition, the GI50 in the assay with SN12C, with OVCAR-8, in the assay on OVCAR-4, in the assay on HCC 2998, in the assay on Malme-3M and with U-251 was > 100 µM (inactive) each time. Also, the GI50 in the assay with HT-29, with SR and in the assay on TK-10 was > 100 µM (inactive) throughout.
As to `N#CCCC(C#N)(C#N)CCC#N`, the GI50 with UO-31, with SK-OV-3, in the assay with XF498, with HCT-116, in the assay on SK-MEL-5 and in the assay with SN12C was > 100 µM (inactive) each time. The GI50 with OVCAR-8, in the assay with HCC 2998, with Malme-3M, in the assay on U-251, with HT-29 and in the assay on SR was > 100 µM (inactive) in each case. Further, in the assay on TK-10, the GI50 is > 100 µM (inactive).
In the case of `CCP(C)(=O)CC`, the GI50 with CAKI-1, in the assay on UO-31, in the assay on SK-OV-3, in the assay with XF498, in the assay with HCT-116 and in the assay with SK-MEL-5 was > 100 µM (inactive) throughout. The GI50 with SN12C, with OVCAR-8, in the assay with OVCAR-4, in the assay with HCC 2998, with Malme-3M and in the assay on U-251 was > 100 µM (inactive) in each case. For the same compound, the GI50 in the assay on HT-29, with SR and in the assay with TK-10 was > 100 µM (inactive) each time.
Regarding `C#CCOCn1cnc2c(N)ncnc21`, the GI50 in the assay with CAKI-1, in the assay on UO-31, in the assay with SK-OV-3, in the assay with XF498, in the assay on HCT-116 and in the assay on SK-MEL-5 was > 100 µM (inactive) in each case. The GI50 in the assay on SN12C, in the assay on OVCAR-8, with OVCAR-4, in the assay on HCC 2998, with Malme-3M and in the assay with U-251 was > 100 µM (inactive) in each case. Moreover, the GI50 with HT-29, with SR and with TK-10 was > 100 µM (inactive) throughout.
On to `CN(CO)c1nc(N(C)CO)nc(N(C)CO)n1` [TRIMELAMOL], for which the GI50 with CAKI-1 was 23.8 µM (inactive); in the assay with UO-31 it was 19 µM (inactive); in the assay with SK-OV-3, 21.9 µM (inactive); in the assay on XF498, 5.75 µM (inactive); in the assay with SK-MEL-5, 6.95 µM (inactive); in the assay with OVCAR-8 it was 14.5 µM (inactive). Besides, the GI50 in the assay on BT-549 was 20.9 µM (inactive); in the assay with PC-3, 21.8 µM (inactive); in the assay on Malme-3M it was 12.8 µM (inactive); in the assay on U-251, 19.5 µM (inactive); in the assay with HT-29, 23 µM (inactive); with Hs-578T it was 27.8 µM (inactive). Also, the GI50 was 32.1 µM (inactive) in the assay on T47D, 39.6 µM (inactive) in the assay on SR and 31.8 µM (inactive) in the assay with TK-10.
As to `CCC1(c2c(F)c(F)c(N)c(F)c2F)CCC(=O)NC1=O` (configuration not stated), the GI50 in the assay on CAKI-1, in the assay with UO-31, in the assay with SK-OV-3, with XF498, with HCT-116 and in the assay on SK-MEL-5 was > 100 µM (inactive) each time. The GI50 in the assay on OVCAR-8, in the assay on OVCAR-4, in the assay on HCC 2998, in the assay on Malme-3M, in the assay on U-251 and in the assay with HT-29 was > 100 µM (inactive) throughout. The GI50 with SR and in the assay with TK-10 was > 100 µM (inactive) in each case.
`O=C(/C=N/O)Nc1cccc(Cl)c1I`: the GI50 in the assay with CAKI-1 was 32.3 µM (inactive); in the assay on UO-31, 23.9 µM (inactive); in the assay with SK-OV-3, 28.5 µM (inactive); with XF498, 46.3 µM (inactive); in the assay with HCT-116, 53.6 µM (inactive); with SK-MEL-5, 40.8 µM (inactive). The GI50 with SN12C is 47.8 µM (inactive); in the assay on OVCAR-8, 81.5 µM (inactive); with OVCAR-4 it was 28.9 µM (inactive); in the assay with HCC 2998, > 100 µM (inactive); in the assay with Malme-3M it was 40.6 µM (inactive); with U-251, 39.2 µM (inactive). Further, the GI50 in the assay on HT-29 is > 100 µM (inactive); in the assay on SR, 30.7 µM (inactive); with TK-10, 44.7 µM (inactive).
